The values that follow come from patent US20240239781A1, “1H-PYRAZOLE DERIVATIVES AS SIGMA LIGANDS” (ACONDICIONAMIENTO TARRASENSE, priority 2021, published 2024).

Where only a bound is given, the exact number is not on record here.

In test [1] the target is T1, human σ2/TMEM97 receptor (Homo sapiens, UniProt Q5BJF2).
T1 construct: expressed in transfected cells; host or cells: HEK-293
Put plainly: Binding assay to human σ2/TMEM97 receptor ([3H]-DTG, transfected HEK-293 membranes). The settings on record: class scale, read-out: Binding σ-2 Ki. The essentials:
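Competition against 10 nM [3H]-DTG (Tris-HCl 50 mM, pH 8.0, 25 °C, 120 min) using 15 μg transfected HEK-293 membrane protein, with 10 μM haloperidol defining NSB. Bound radioactivity counted after filtration; results as single-point % inhibition (1 or 10 μM) or five-point Ki.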

Test [2] has as its target T2, human σ1 receptor (Homo sapiens, UniProt Q99720).
T2 construct: expressed in transfected cells; host or cells: HEK-293
Description: Human σ1 receptor radioligand assay ([3H](+)-pentazocine, transfected HEK-293 membranes). The note with it: class scale, read-out: Binding σ-1 Ki. The essentials:
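Compounds were tested at a single 1 or 10 μM concentration (% inhibition) or at five concentrations to give Ki. They competed with 5 nM [3H](+)-pentazocine for transfected HEK-293 membranes (7 μg) in 50 mM Tris-HCl pH 8 at 37° C for 120 minutes. Nonspecific binding was set with 10 μM haloperidol, and a filtration scintillation read-out was used.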

T1 sequence (Q5BJF2 whole entry): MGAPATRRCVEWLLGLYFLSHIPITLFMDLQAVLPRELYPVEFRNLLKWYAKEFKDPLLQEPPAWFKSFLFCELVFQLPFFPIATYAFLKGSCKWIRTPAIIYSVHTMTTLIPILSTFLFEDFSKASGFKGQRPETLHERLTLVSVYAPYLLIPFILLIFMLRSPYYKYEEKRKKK
T2 sequence (Q99720 whole entry): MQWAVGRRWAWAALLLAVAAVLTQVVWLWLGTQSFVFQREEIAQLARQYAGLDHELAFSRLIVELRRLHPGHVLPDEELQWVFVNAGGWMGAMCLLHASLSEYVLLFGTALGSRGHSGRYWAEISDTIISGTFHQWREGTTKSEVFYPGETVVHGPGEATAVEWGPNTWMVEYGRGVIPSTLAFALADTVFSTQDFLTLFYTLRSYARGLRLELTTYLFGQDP

One may read the Ki as a measure of affinity in units of concentration, obtained from inhibition or displacement. For `Cn1cc(-c2nn(C)c(Cl)c2C(=O)NC2CC3(CCN(CCC(C)(C)C)CC3)C2)cn1` [Example 140, 5-Chloro-N-(7-(3,3-dimethylbutyl)-7-azaspiro[3.5]nonan-2-yl)-1,1′-dimethyl-1H,1′H-[3,4′-bipyrazole]-4-carboxamide], the figures for the inhibition constant Ki in test [1] and in test [2] were less than 100 nM and 500 to 1000 nM, respectively.

On to `Cc1cccc(-c2nn(C)c(Cl)c2C(=O)NC2CC3(CCN(CCC(C)(C)C)CC3)C2)n1` [Example 141, 5-Chloro-N-(7-(3,3-dimethylbutyl)-7-azaspiro[3.5]nonan-2-yl)-1-methyl-3-(6-methylpyridin-2-yl)-1H-pyrazole-4-carboxamide], for which the inhibition constant Ki in test [1] and in test [2] was less than 100 nM throughout.

As to `CCn1nc(-c2ccon2)c(C(=O)NC2CCC3(CC2)CCN(CCC(C)(C)C)CC3)c1Cl` [Example 142, 5-Chloro-N-(3-(3,3-dimethylbutyl)-3-azaspiro[5.5]undecan-9-yl)-1-ethyl-3-(isoxazol-3-yl)-1H-pyrazole-4-carboxamide], the inhibitory constant (Ki) in test [1] and in test [2] was less than 100 nM each time.

Take `CCn1nc(-c2cc(C)on2)c(C(=O)NC2CCC3(CC2)CCN(CCC(C)(C)C)CC3)c1Cl` [Example 143, 5-Chloro-N-(3-(3,3-dimethylbutyl)-3-azaspiro[5.5]undecan-9-yl)-1-ethyl-3-(5-methylisoxazol-3-yl)-1H-pyrazole-4-carboxamide]: the Ki in test [1] and in test [2] was less than 100 nM each time.

For the molecule `Cc1cc(-c2nn(C)c(Cl)c2C(=O)N2CC3(CCCN(CCC(C)(C)C)C3)C2)no1` [Example 144, (5-Chloro-1-methyl-3-(5-methylisoxazol-3-yl)-1H-pyrazol-4-yl)(6-(3,3-dimethylbutyl)-2,6-diazaspiro[3.5]nonan-2-yl)methanone], the figures for the inhibitory constant (Ki) in test [1] and in test [2] were 100 to 500 nM and 500 to 1000 nM, respectively.

`CCn1cc(-c2nn(C)c(Cl)c2C(=O)NC2CC3(CCN(CCC(C)(C)C)CC3)C2)cn1` [Example 145, 5-Chloro-N-(7-(3,3-dimethylbutyl)-7-azaspiro[3.5]nonan-2-yl)-1′-ethyl-1-methyl-1H,1′H-[3,4′-bipyrazole]-4-carboxamide]: the inhibition constant (Ki) in test [1] was less than 100 nM; in test [2], 500 to 1000 nM.

Take `CCn1cc(-c2nn(C)c(Cl)c2C(=O)NC2CCC3(CC2)CCN(CCC(C)(C)C)CC3)cn1` [Example 146, 5-Chloro-N-(3-(3,3-dimethylbutyl)-3-azaspiro[5.5]undecan-9-yl)-1′-ethyl-1-methyl-1H,1′H-[3,4′-bipyrazole]-4-carboxamide]: the inhibition constant Ki in test [1] is less than 100 nM; in test [2], 500 to 1000 nM.

Consider `Cn1nc(-c2cccc(C(F)(F)F)n2)c(C(=O)NC2CCC3(CC2)CCN(CCC(C)(C)C)CC3)c1Cl` [Example 147, 5-Chloro-N-(3-(3,3-dimethylbutyl)-3-azaspiro[5.5]undecan-9-yl)-1-methyl-3-(6-(trifluoromethyl)pyridin-2-yl)-1H-pyrazole-4-carboxamide], for which the Ki in test [1] and in test [2] was less than 100 nM throughout.

Consider `Cc1cccc(-c2nn(C)c(Cl)c2C(=O)NC2CCC3(CC2)CCN(CCC(C)(C)C)CC3)n1` [Example 148, 5-Chloro-N-(3-(3,3-dimethylbutyl)-3-azaspiro[5.5]undecan-9-yl)-1-methyl-3-(6-methylpyridin-2-yl)-1H-pyrazole-4-carboxamide], for which the Ki in test [1] and in test [2] was less than 100 nM throughout.

`CCn1nc(-c2cnn(C(C)C)c2)c(C(=O)NC2CC3(CCN(CCC(C)(C)C)CC3)C2)c1Cl` [Example 149, 5-Chloro-N-(7-(3,3-dimethylbutyl)-7-azaspiro[3.5]nonan-2-yl)-1-ethyl-1′-isopropyl-1H,1′H-[3,4′-bipyrazole]-4-carboxamide]: the Ki was less than 100 nM in test [1] and 100 to 500 nM in test [2].

`CCn1nc(-c2cc(C)on2)c(C(=O)N2CCCC3(CCN(CCC(C)(C)C)CC3)C2)c1Cl` [Example 150, (5-Chloro-1-ethyl-3-(5-methylisoxazol-3-yl)-1H-pyrazol-4-yl)(9-(3,3-dimethylbutyl)-2,9-diazaspiro[5.5]undecan-2-yl)methanone]: the inhibition constant (Ki) in test [1] was less than 100 nM; in test [2] it was 100 to 500 nM.

As to `CCn1nc(-c2cccc(C)n2)c(C(=O)NC2CCC3(CC2)CCN(CCC(C)(C)C)CC3)c1Cl` [Example 151, 5-Chloro-N-(3-(3,3-dimethylbutyl)-3-azaspiro[5.5]undecan-9-yl)-1-ethyl-3-(6-methylpyridin-2-yl)-1H-pyrazole-4-carboxamide], the inhibitory constant (Ki) in test [1] and in test [2] was less than 100 nM in each case.

As for `CCn1nc(-c2cc(C(C)C)on2)c(C(=O)N2CCCC3(CCN(CCC(C)(C)C)CC3)C2)c1Cl` [Example 152, (5-Chloro-1-ethyl-3-(5-isopropylisoxazol-3-yl)-1H-pyrazol-4-yl)(9-(3,3-dimethylbutyl)-2,9-diazaspiro[5.5]undecan-2-yl)methanone], the Ki in test [1] was less than 100 nM; in test [2], 100 to 500 nM.

`Cc1cc(-c2nn(C)c(Cl)c2C(=O)NC2CC3(CCN(Cc4ccccc4)CC3)C2)no1` [Example 153, N-(7-Benzyl-7-azaspiro[3.5]nonan-2-yl)-5-chloro-1-methyl-3-(5-methylisoxazol-3-yl)-1H-pyrazole-4-carboxamide]: the Ki in test [1] and in test [2] was 100 to 500 nM each time.

Regarding `Cc1cc(-c2nn(C)c(Cl)c2C(=O)NC2CC3(CCN(CC(C)(C)C)CC3)C2)no1` [Example 154, 5-Chloro-1-methyl-3-(5-methylisoxazol-3-yl)-N-(7-neopentyl-7-azaspiro[3.5]nonan-2-yl)-1H-pyrazole-4-carboxamide], the inhibition constant (Ki) in test [1] and in test [2] was 100 to 500 nM each time.

In the case of `Cn1nc(-c2cccc(C(F)(F)F)n2)c(C(=O)N2CCCC3(CCN(CCC(C)(C)C)CC3)C2)c1Cl` [Example 155, (5-Chloro-1-methyl-3-(6-(trifluoromethyl)pyridin-2-yl)-1H-pyrazol-4-yl)(9-(3,3-dimethylbutyl)-2,9-diazaspiro[5.5]undecan-2-yl)methanone], the Ki in test [1] was less than 100 nM; in test [2], 100 to 500 nM.

As to `Cc1cc(-c2nn(C)c(Cl)c2C(=O)N2CCCC3(CCN(Cc4ccccc4)CC3)C2)no1` [Example 156, (9-Benzyl-2,9-diazaspiro[5.5]undecan-2-yl)(5-chloro-1-methyl-3-(5-methylisoxazol-3-yl)-1H-pyrazol-4-yl)methanone], the Ki in test [1] is less than 100 nM; in test [2], 100 to 500 nM.

With `Cc1cc(-c2nn(C)c(Cl)c2C(=O)N2CCCC3(CCN(CC(C)(C)C)CC3)C2)no1` [Example 157, (5-Chloro-1-methyl-3-(5-methylisoxazol-3-yl)-1H-pyrazol-4-yl)(9-neopentyl-2,9-diazaspiro[5.5]undecan-2-yl)methanone], the inhibition constant (Ki) in test [1] was less than 100 nM; in test [2], greater than 1000 nM.

On to `CCn1nc(-c2cc(C)on2)c(C(=O)NCCC2CCN(CCC(C)(C)C)CC2)c1Cl` [Example 158, 5-Chloro-N-(2-(1-(3,3-dimethylbutyl)piperidin-4-yl)ethyl)-1-ethyl-3-(5-methylisoxazol-3-yl)-1H-pyrazole-4-carboxamide], for which the Ki is less than 100 nM in test [1] and 100 to 500 nM in test [2].

For `CCn1nc(-c2cc(C)on2)c(C(=O)NC2CCN(CCC(C)(C)C)CC2)c1Cl` [Example 159, 5-Chloro-N-(1-(3,3-dimethylbutyl)piperidin-4-yl)-1-ethyl-3-(5-methylisoxazol-3-yl)-1H-pyrazole-4-carboxamide], the Ki in test [1] and in test [2] was less than 100 nM in each case.

For the molecule `CCn1nc(-c2cc(C)on2)c(C(=O)NC2CCCN(CCC(C)(C)C)CC2)c1Cl` (stereo not shown) [Example 160, 5-Chloro-N-(1-(3,3-dimethylbutyl)azepan-4-yl)-1-ethyl-3-(5-methylisoxazol-3-yl)-1H-pyrazole-4-carboxamide], the inhibition constant Ki in test [1] and in test [2] was less than 100 nM in each case.

As for `CCn1nc(-c2cccc(C(F)(F)F)n2)c(C(=O)NC2CCN(CCC(C)(C)C)CC2)c1Cl` [Example 161, 5-Chloro-N-(1-(3,3-dimethylbutyl)piperidin-4-yl)-1-ethyl-3-(6-(trifluoromethyl)pyridin-2-yl)-1H-pyrazole-4-carboxamide], the inhibitory constant (Ki) in test [1] and in test [2] was less than 100 nM in each case.

Take `CCn1nc(-c2cc(C(C)C)on2)c(C(=O)NC2CCN(CCC(C)(C)C)CC2)c1Cl` [Example 162, 5-Chloro-N-(1-(3,3-dimethylbutyl)piperidin-4-yl)-1-ethyl-3-(5-isopropylisoxazol-3-yl)-1H-pyrazole-4-carboxamide]: the Ki in test [1] and in test [2] was less than 100 nM in each case.

Turning to `CCn1nc(-c2ccon2)c(C(=O)NC2CCN(CCC(C)(C)C)CC2)c1Cl` [Example 163, 5-Chloro-N-(1-(3,3-dimethylbutyl)piperidin-4-yl)-1-ethyl-3-(isoxazol-3-yl)-1H-pyrazole-4-carboxamide], the Ki was less than 100 nM in test [1] and 100 to 500 nM in test [2].

Take `CCn1nc(-c2cc(C)on2)c(C(=O)N[C@H]2CCN(CCC(C)(C)C)C2)c1Cl` [Example 164, (S)-5-Chloro-N-(1-(3,3-dimethylbutyl)pyrrolidin-3-yl)-1-ethyl-3-(5-methylisoxazol-3-yl)-1H-pyrazole-4-carboxamide]: the inhibition constant (Ki) is 100 to 500 nM in test [1] and less than 100 nM in test [2].

Consider `CCn1nc(-c2cc(C)on2)c(C(=O)N[C@@H]2CCN(CCC(C)(C)C)C2)c1Cl` [Example 165, (R)-5-Chloro-N-(1-(3,3-dimethylbutyl)pyrrolidin-3-yl)-1-ethyl-3-(5-methylisoxazol-3-yl)-1H-pyrazole-4-carboxamide], for which the Ki in test [1] and in test [2] was less than 100 nM in each case.
